Target: T1, FldH (Fusobacterium nucleatum, UniProt Q8RI14)
T1 construct: gene FN1822; full-length, 169 residues, N-terminal His6 tag (pET15b) cut with thrombin; expressed in E. coli BL21(DE3)pLysS; monomer
Assay: X-ray crystal structure, […] A
Assay type: binding
Settings: heme-bound protein; FMN copurified

T1 sequence (Q8RI14 entry or part of it): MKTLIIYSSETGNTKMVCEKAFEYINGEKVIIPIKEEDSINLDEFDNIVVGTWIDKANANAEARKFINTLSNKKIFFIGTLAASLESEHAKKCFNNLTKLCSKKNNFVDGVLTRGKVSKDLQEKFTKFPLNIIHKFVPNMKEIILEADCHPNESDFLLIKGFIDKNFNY

Cc1cc2nc3c(=O)[nH]c(=O)nc-3n(C[C@H](O)[C@H](O)[C@H](O)COP(=O)(O)O)c2cc1C [FMN]
X-ray crystal structure, 1.6 A: The FMN cofactor is situated at the carboxyl-terminal end of the β-parallel sheet
